# pIC50: −log10 of the molar value. Counter-ions that a name gives are not always drawn.
# Target: superoxide-dependent, iron-promoted lipid peroxidation of native rat heart cardiac lipid liposomes
# Test: Lipid peroxidation inhibition (in vitro testing of antiperoxidative agents, ANTI-OX), hypoxanthine-xanthine oxidase-Fe3+.ADP, rat cardiac liposomes, MDA equivalents
# Format: biochemical
# Conditions: 60 min, 37° C., screened at 1.0 μM, IC50 determined if inhibition ≥ 50%, read-out: ANTI-OX IC-50
# Procedure: The test system employs hypoxanthine-xanthine oxidase (XO)-Fe^3+. ADP as the free radical generator and purified, native rat-heart membrane phosphoglyceride in Hepes-KCl buffer, pH 7.4, as the substrate. Inhibition of superoxide-dependent, iron-promoted lipid peroxidation in the linear reaction phase (after 1 hour of reaction) is measured as the net formation of thiobarbituric acid (TBA)-reactive material. In this system, the TBA-reactive material, isolated by HPLC, is exclusively (>95%) malondialdehyde (MDA), a fragmentation end-product arising from fatty acyl hydroperoxides and cyclic endoperoxides. […]
# a) Isolation and purification of Rat Cardiac Lipid
# Conscious male Sprague-Dawley rats (~275g) maintained on a normal rodent diet were decapitated. The hearts were rapidly removed and perfused via the aorta with ice-cold 10 mM Hepes buffer, pH 7.4. The aorta and atria were removed, and the ventricular tissue was blotted and weighed (wet weight). The hearts were minced on ice with scissors and finally homogenized (100 mg tissue/ml ice-cold buffer) for 15 seconds (3×5 seconds) with a Tekmar Tissumizer at "maximal" setting. The homogenate was filtered through 4-ply cheesecloth, and homogenate lipids were extracted and purified by a modified Bligh-Dyer procedure (M.D. Marshall and M. Kates, Biochem. Biophys. Acta 260, 558 (1972). The cardiac lipids were stored in CHCl3 under nitrogen at -20° C. […]
# b) Preparation of Cardiac Liposomes
# Liposomes were prepared from extracted and purified, native rat heart cardiac lipid and were used as substrate for free-radical attack. Cardiac lipid (in CHCl3) was placed in a glass flask and evaporated to dryness under nitrogen at room temperature; the flask was gently rotated during evaporation to yield a thin, dry lipid film. The lipid was taken up in 10 mM Hepes-0.145M KCl, pH 7.4, and was resuspended by indirect an aerobic sonification for 15 minutes at room temperature. The liposome suspension was used immediately. […]
# c) preparation of Fe^3+ -ADP Chelate
# A chelate was formed in Hepes-KCl buffer between Fe^3+ (1.0mM FeCl3, final concentration) and ADP (10mM, final concentration) at pH 7.4 with stirring at room temperature. Chelation was allowed to proceed for 90 minutes prior to use. The chelate was prepared fresh for each days experiments to ensure iron solubility, effective chelation, and valence state. […]
# d) Thiobarbituric Acid Reaction or Determination of Malondialdehvde Equivalents Malondialdehyde (MDA) equivalents were measured as thiobarbituric acid (TBA)-reactive material by the following modification of published methods. The reaction mixture. prepared fresh daily, contained water: BHT ([…] BHT in absolute ethanol): TBA (1.5% TBA in 0.2M Tris, pH 7.0) in the volume ratio 1:1:5. To each 1.0 ml of peroxidation reaction assayed (see below), 0.35 ml reaction mixture was added. After thorough mixing, the tubes were incubated in an 80° C. shaking water bath for 30 minutes. After this time, the tubes were plunged into an ice water bath, and the reaction was immediately stopped with 0.5 ml ice-cold 91% TCA followed by 2.0 ml CHCl3 After centrifugation for 30 minutes at 2000 rpm in a Sorval HL-8 rotor (4° C.), the absorbance of the washed, pink upper phase was read at 532 nm. A standard curve (0.8-40.0 nmol MDA) was run with every assay. For each curve, MDA was freshly prepared by acidification of 1,1,3,3 -tetraethoxypropane with 75% TCA-2.3N HCl (0.15 ml acid mixture with 1.0 ml suitably diluted tetraethoxypropane). Computer-assisted regression analysis of the standard curve was used to quantify the molar amounts of MDA equivalents in the experimental samples. […]
# e) Lipid peroxidation Reaction
# Cardiac liposomes were subjected to superoxidedependent. iron-promoted peroxidation in glass vessels to avoid the well-known antioxidant effects of many common polymerizing agents used to fabricate plastic labware. […]
row,pIC50,SMILES
1,< 6.00,"CCCc1cc(C#CC2(C)CCc3c(C)c(O)c(C)c(C)c3O2)ccc1O (racemic) [Example 37, rac-3,4-Dihydro-2-[(4-hydroxy-3-propylphenyl)ethynyl]-2,5,7,8-tetramethyl-2H-1-benzopyran-6-ol]"

# Target: T1, Δ^5 -lipoxygenase from rat basophilic leukemia (RBL-1) cells (Rattus norvegicus, UniProt P12527)
# T1 construct: endogenous in cells; host or cells: RBL-1 rat basophilic leukemia cells (ATCC CRL 1378); 113,000×g supernatant (cytosolic fraction)
# T1 sequence (P12527 1-673): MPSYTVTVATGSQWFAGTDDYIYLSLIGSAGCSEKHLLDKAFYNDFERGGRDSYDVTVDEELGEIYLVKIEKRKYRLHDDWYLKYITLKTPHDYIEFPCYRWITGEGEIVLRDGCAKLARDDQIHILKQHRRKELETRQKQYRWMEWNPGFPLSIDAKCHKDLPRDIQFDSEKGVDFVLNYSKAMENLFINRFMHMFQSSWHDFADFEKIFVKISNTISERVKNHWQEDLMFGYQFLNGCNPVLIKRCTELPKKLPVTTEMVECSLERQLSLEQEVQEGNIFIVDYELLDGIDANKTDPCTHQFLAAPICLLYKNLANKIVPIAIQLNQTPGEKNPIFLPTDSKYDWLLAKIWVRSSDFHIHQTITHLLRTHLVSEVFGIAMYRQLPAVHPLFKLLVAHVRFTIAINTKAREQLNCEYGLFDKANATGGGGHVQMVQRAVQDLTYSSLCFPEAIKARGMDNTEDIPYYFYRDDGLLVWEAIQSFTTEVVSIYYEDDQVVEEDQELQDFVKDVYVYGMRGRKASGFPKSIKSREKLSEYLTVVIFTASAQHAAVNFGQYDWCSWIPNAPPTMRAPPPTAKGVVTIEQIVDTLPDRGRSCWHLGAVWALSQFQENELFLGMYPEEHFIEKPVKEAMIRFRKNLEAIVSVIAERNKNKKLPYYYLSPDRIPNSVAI
# Test: In vitro test for Δ^5 -lipoxygenase inhibitors (5-LO), RBL-1 cell enzyme, 5-HETE radioimmunoassay
# Format: biochemical
# Conditions: RBL-1 5-LO; 10 min preincubation; 8.25 μM arachidonic acid, 10 min at 37° C.; 5-HETE formation; read-out: 5-LO IC-50
# Procedure: IN VITRO TEST FOR Δ^5 -LIPOXYGENASE INHIBITORS Compounds of formula I of the invention were tested for their effect on Δ^5 -lipoxygenase from rat basophilic leukemia (RBL-1) cells. Materials. RBL-1 cells (CRL 1378) were obtained from the American TYpe Culture Collection, Rockville, MD. DMEM and glutamine were purchased from Flow Labs, McLean, VA. FBS (Gibco, Grand Island, NY) was heat-inactivated for 1 hour at 56° C. Reagents for protein determinations were obtained from Biorad, Rockville Center, NY. Arachidonic acid (approx. 99%), ATP (disodium slat), BHT, dextran (clinical grade), tetrasodium EDTA, gelatin, gentamycin sulfate solution, reduced glutathione, 1 M HEPES buffer, indomethacin, NaCl, reduced NADpH, Trizma 7.2, and Trizma 8.5 were purchased from Sigma Chemical, St. Louis, MO. CaCl2 dihydrate, Norit A charcoal, and citric acid monohydrate were obtained from Fisher Scientific, Pittsburgh, PA. […] MA. A synthetic 5-HETE standard was supplied by Dr. M. Rosenberger, Dept. of Medicinal Chemistry, Hoffmann-La Roche, Nutley, NJ; [see Corey, E.J., and Hashimoto, S. (1981 ) Tet. Letters, 22, 299-302 for method of preparation]. Ecoscint liquid sointillation fluid was purchased from National Diagnostics, Sommerville, NJ. Isolation of 5-lipoxygenase. […] Approximately 7-9 days after thawing, RBL-1 cells growing in log phase were seeded at a density of 7500 viable cells/ml in a closed 89-liter spinner flask. The cells were stirred constantly for 3-4 days at 37° C. until they reached a density greater than 500,000/ml but less than 800,00/ml. RBL-1 cells were harvested by centrifugation at 4° C. at 1500×g for 10 minutes and were washed 3 times with ice cold 0.05 M tris-HCl, pH 7.2, tetrasodium EDTA (buffer 1). The cells were washed last in 0.05 M Tris-HCl containing 14 μM indomethacin, 1 mM glutathione, 1.5 mM NaCl, and 1 mM tetrasodium EDTA (buffer 2), resuspended at a density of 5×108'/ml (approximately 10 ml) and disrupted manually at 4° C. using a 40 ml Dounce (type A pestle) homogenizer. After 5 minutes of homogenization. 95% cell lysis was confirmed by phase contrast microscopy. The broken cells were diluted 1:2 with buffer 2 and centrifuged at 12,380×g for 10 minutes at 4° C. to pellet cellular debris and granules. The 12,380×g supernatant was centrifuged at 113,000×g for 60 minutes to pellet microsomes. The high-speed supernatant (5.9±0.48 mg/ml protein) was frozen immediately in 1 ml aliquots using a dry ice/acetone bath. The isolated cytosolic fraction was stored in liquid N2 for up to 8 weeks without loss of 5-LO enzyme activity. Lipoxygenase Assay. Compounds Were dissolved at 25 mM concentration in DMSO, then diluted to final concentrations using 95% ethanol. For a typical enzyme assay, the partially purified 5-LO preparation was preincubated with drug or vehicle for 10 minutes at 30° C. The assay tubes were then transferred at a 37° C. water bath where they received arachidonic acid (8.25 μM final concentration) to initiate 5-LO activity. In addition to enzyme and substrate, each reaction tube contained: 12.5 μmoles of Tris-HCl (pH 7.2), 25 nmoles glutathione, 0.35 nmoles indomethacin and 1.25 μmoles of CaCl2 and ATP to yield a total of volume of 250 μl. The enzyme reaction was terminated after 10 minutes by the addition of 75μl […] citric acid to yield pH 3.5. The samples were immediately cooled on ice and neutralized by dilution with 0.05 M Tris-HCl, pH 8.5, which contained 25 mg/1 BHT. A boiled cytosol control was placed at the end of each assay to measure non-enzymatic oxidation of arachidonic acid. The mean specific activity of the 5-LO enzyme preparation was approximately 66.16±14.39 pmol 5-HETE/min/mg protein. Radioimmunoassay for 5-HETE. Under the assay conditions described, the 5-LO catalyzed the conversion of arachidonic acid to 5-HPETE which, as a consequence o peroxidase activity, was reduced to 5-HETE. A specific radioimmunoassay was employed to quantitate the amount (pmoles) of 5-HETE formed during the enzyme reaction. […]
row,SMILES,pIC50
1,"Cc1c(C)c2c(c(C)c1O)CCC(C)(C#Cc1ccc3c(c1)N(C(=O)C(F)(F)F)CCO3)O2 (racemic) [Example 45, rac-3,4-Dihydro-6-[(3,4-dihydro-6-hydroxy-2,5,7,8-tetramethyl2H-1-benzopyran-2-yl)ethynyl]-4(trifluoroacetyl)-2H-1,4-benzoxazine]",7.35
2,"CC(=O)Oc1cc(CCC2(C)CCc3c(C)c(O)c(C)c(C)c3O2)ccc1O (racemic) [Example 67, rac-4-[2-(3,4-Dihydro-6-hydroxy-2,5,7,8-tetramethyl-2H-1-benzopyran-2-yl)ethyl]-1,2-benzenediol-2-acetate]",7.42
3,"COc1cc(CN)cc(CCC2(C)CCc3c(C)c(O)c(C)c(C)c3O2)c1O (racemic) [Example 68, rac-{2-[5-(Aminomethyl)-2-hydroxy-3-methoxyphenyl]ethyl}-3,4-dihydro-2,5,7,8-tetramethyl-2H-1-benzopyran-6-ol hydrochloride]",7.15

# Further lines, results first:
row,pIC50,SMILES
1,8.00,"Cc1c(C)c2c(c(C)c1O)CCC(C)(C#Cc1ccccc1NC(=O)C(F)(F)F)O2 (racemic) [Example 44, rac-2,2,2-Trifluoro-N-{2-[(3,4-dihydro-6-hydroxy-2,5,7,8-tetramethyl-2H-1-benzopyran-2-yl)ethynyl]phenyl}acetamide]"
2,7.74,"Cc1c(C)c2c(c(C)c1O)CCC(C)(C#Cc1ccc3c(c1)NCCO3)O2 (racemic) [Example 47, rac-2-[(3,4-dihydro-2H-1,4-benzoxazine-6-yl)ethynyl]-3,4-dihydro-2,5,7,8-tetramethyl-2H-1-benzopyran-6-ol hydrochloride]"

# — patent US5015661A, “Chromanes and their pharmaceutical compositions and methods” (Hoffmann-La Roche Inc., priority 1989, dated 1991)
